According to patent US4668669A, “Pristinamycin IIB derivatives and compositions containing them” (Rhone-Poulenc Sante, priority 1985, dated 1987):
Starred links: 1 amine or outer side, 2 acyl side, 3 side chain; linkers in the order of their positions; H or OH if unused. Positions of bridges follow the written chain, without caps; N, C: chain ends. Non-standard residues stand in square brackets, D forms with d. Residues, ends and D or L forms follow the SMILES beside them. ξ: configuration not given here. *: point of attachment. X6 = CC(CN1CCN(C)CC1)SC=C1CN([*:1])C(C(=O)[*:2])CC1=O; X4 = CN(C)CC(CN(C)C)SCC1CN([*:1])C(C(=O)[*:2])CC1=O; X5 = CN1CCN(CCCSCC2CN([*:1])C(C(=O)[*:2])CC2=O)CC1; X2 = CN1CCC(SCC2CN([*:1])C(C(=O)[*:2])CC2=O)CC1; ξNMePhe(4-NMe2) = CNC(Cc1ccc(N(C)C)cc1)C(=O)O; X1 = CN(C)CCOC=C1CN([*:1])C(C(=O)[*:2])CC1=O; X3 = CN(C)CCNC=C1CN([*:1])C(C(=O)[*:2])CC1=O; X7 = CN(C)CCCSCC1CN([*:1])C(C(=O)[*:2])CC1=O; Picolinoyl(3-OH) = O=C(c1ncccc1O)*; NMeF = CN[CH](Cc1ccccc1)C(=O)O; Phg = N[CH](C(=O)O)c1ccccc1; Abu = CC[CH](N)C(=O)O

test: Solubility in water (aqueous solution obtained); format: physicochemical; details: distilled water, no hydrochloride stated

Compound | Solubility: concentration of aqueous solution
CCC1NC(=O)C(NC(=O)c2ncccc2O)C(C)OC(=O)C(c2ccccc2)NC(=O)C2CC(=O)C(=CNCCN(C)C)CN2C(=O)C(Cc2ccc(N(C)C)cc2)N(C)C(=O)C2CCCN2C1=O (centres unmarked) [product AG, 5δ-(2-dimethylaminoethyl)aminomethylenepristinamycin IA] ({Picolinoyl(3-OH)}-T[Abu]P[ξNMePhe(4-NMe2)][X3][Phg]; ester 1-C; configuration not given here) | 1%
5γ-[N-(carboxymethyl)methylamino]-5γ-deoxypristinamycin IA [product K] | 2%

test: Solubility in water (aqueous solution obtained); format: physicochemical; details: hydrochloride / dissolved with aqueous hydrochloric acid and distilled water
Excerpt: In the examples described below, unless stated otherwise, all the products can be dissolved at a strength of at least 2%, in the form of hydrochloride.

Compound | Solubility: concentration of aqueous solution, in the form of hydrochloride
CCC1NC(=O)C(NC(=O)c2ncccc2O)C(C)OC(=O)C(c2ccccc2)NC(=O)C2CC(=O)C(CSC3CCN(C)CC3)CN2C(=O)C(Cc2ccc(N(C)C)cc2)N(C)C(=O)C2CCCN2C1=O (centres unmarked) [product AF, 5δ-(1-methyl-4-piperidyl)thiomethylpristinamycin IA] ({Picolinoyl(3-OH)}-T[Abu]P[ξNMePhe(4-NMe2)][X2][Phg]; ester 1-C; configuration not given here) | 5%
CCC1NC(=O)C(NC(=O)c2ncccc2O)C(C)OC(=O)C(c2ccccc2)NC(=O)C2CC(=O)C(=CSC(C)CN3CCN(C)CC3)CN2C(=O)C(Cc2ccc(N(C)C)cc2)N(C)C(=O)C2CCCN2C1=O (centres unmarked) [product AAN, 5δ-[3-(4-methyl-1-piperazinyl)-2-propyl]thiomethylenepristinamycin IA] ({Picolinoyl(3-OH)}-T[Abu]P[ξNMePhe(4-NMe2)][X6][Phg]; ester 1-C; configuration not given here) | 10%
5δ-(1-methyl-4-piperidyl)aminomethylenepristinamycin IA [product AT] | 10%
CC1=CC(O)CC(=O)Cc2nc(co2)C(=O)N2CCC([S+]([O-])CC(Cc3ccccc3)N(C)C)C2C(=O)OC(C(C)C)C(C)C=CC(=O)NCC=C1 [Example 11, 26-[(2S)-2-dimethylamino-3-phenylpropyl]sulphinylpristinamycin IIB] | 1%
5δ-(5-diethylamino-2-pentyl)thiomethylenepristinamycin IA [Reference Example 58] | 10%
5δ-(3-dimethylaminopropyl)thiomethylpristinamycin IA [product AA] | 10%
5γ-deoxy-5γ-(4-diethylamino-2-methylbutyl)aminopristinamycin IA [product F] | 10%
5γ-deoxy-5γ-[N-(2-dimethylaminoethyl)-N-methylamino]pristinamy cin IA [product D] | 10%
5γ-Deoxy-5γ-(2-dimethylaminoethyl)aminopristinamycin IA [compound 2] | 10%
CC1=CC(O)CC(=O)Cc2nc(co2)C(=O)N2CCC([S+]([O-])CCN(C)C)C2C(=O)OC(C(C)C)C(C)C=CC(=O)NCC=C1 (centres unmarked) [Example 4, 26-(2-dimethylaminoethyl)sulphinylpristinamycin IIB] | 3.7%
5γ-deoxy-5γ-dimethylaminopristinamycin IA [product B] | 2%
CC1=CC(O)CC(=O)Cc2nc(co2)C(=O)N2CCC([S+]([O-])CCCN(C)C)C2C(=O)OC(C(C)C)C(C)C=CC(=O)NCC=C1 (centres unmarked) [Example 6, 26-(3-dimethylaminopropyl)sulphinylpristinamycin IIB] | 2%
5δ-[2-(4-methyl-1-piperazinyl)ethyl]thiomethylpristinamycin IA [product AC] | 5%
5γ-deoxy-5γ-[N-(2-dimethylaminoethyl)acetamido]pristinamycin IA [product L] | 10%
CCC1NC(=O)C(NC(=O)c2ncccc2O)C(C)OC(=O)C(c2ccccc2)NC(=O)C2CC(=O)C(CSCCCN(C)C)CN2C(=O)C(Cc2ccccc2)N(C)C(=O)C2CCCN2C1=O (centres unmarked) [product AB, 5δ-(3-dimethylaminopropyl)thiomethylvirginiamycin S] ({Picolinoyl(3-OH)}-T[Abu]P[NMeF][X7][Phg]; ester 1-C; configuration not given here) | 10%
5δ-(3-dimethylamino-2-propyl)thiomethylenepristinamycin IA [Reference Example 57] | 5%
CCC1NC(=O)C(NC(=O)c2ncccc2O)C(C)OC(=O)C(c2ccccc2)NC(=O)C2CC(=O)C(=COCCN(C)C)CN2C(=O)C(Cc2ccc(N(C)C)cc2)N(C)C(=O)C2CCCN2C1=O (centres unmarked) [product AAQ, 5δ-(2-dimethylaminoethoxymethylene)pristinamycin IA] ({Picolinoyl(3-OH)}-T[Abu]P[ξNMePhe(4-NMe2)][X1][Phg]; ester 1-C; configuration not given here) | 1%
5γ-deoxy-(3-dimethylaminopropyl)-5γ-amino-pristinamycin IA [product A] | 10%
5γ-deoxy-5γ-[N-(3-dimethylaminopropyl)acetamido]pristinamycin IA [product M] | 10%
5γ-deoxy-5γ-methylaminopristinamycin IA [Reference Example 9] | 1%
CCC1NC(=O)C(NC(=O)c2ncccc2O)C(C)OC(=O)C(c2ccccc2)NC(=O)C2CC(=O)C(CSCCCN3CCN(C)CC3)CN2C(=O)C(Cc2ccc(N(C)C)cc2)N(C)C(=O)C2CCCN2C1=O (centres unmarked) [product AD, 5δ-[3-(4-methyl-1-piperazinyl)propyl]thiomethylpristinamycin IA] ({Picolinoyl(3-OH)}-T[Abu]P[ξNMePhe(4-NMe2)][X5][Phg]; ester 1-C; configuration not given here) | 10%
CCCCCCCCCCNCC[S+]([O-])C1CCN2C(=O)c3coc(n3)CC(=O)CC(O)C=C(C)C=CCNC(=O)C=CC(C)C(C(C)C)OC(=O)C12 (centres unmarked) [Example 18, 26-(2-decylaminoethyl)sulphinylpristinamycin IIB] | 1%
26-(2-Diisopropylaminoethyl)sulphonylpristinamycin IIB [Example 25] | 5%
5δ-(2-diethylaminoethyl)thiomethylpristinamycin IA [product AF1] | 5%
CCN(C)CC[S+]([O-])C1CCN2C(=O)c3coc(n3)CC(=O)CC(O)C=C(C)C=CCNC(=O)C=CC(C)C(C(C)C)OC(=O)C12 (centres unmarked) [Example 5, 2-(N-methyl-N-ethyl-2-aminoethyl)sulphinylpristinamycin IIB] | 10%
5δ-(2-dimethylaminoethyl)thiomethylenepristinamycin IA [product AX] | 1%
CCC1NC(=O)C(NC(=O)c2ncccc2O)C(C)OC(=O)C(c2ccccc2)NC(=O)C2CC(=O)C(CSC(CN(C)C)CN(C)C)CN2C(=O)C(Cc2ccc(N(C)C)cc2)N(C)C(=O)C2CCCN2C1=O (centres unmarked) [product AE, 5δ-[1,3-bis(dimethylamino)-2-propyl]thiomethylpristinamycin IA] ({Picolinoyl(3-OH)}-T[Abu]P[ξNMePhe(4-NMe2)][X4][Phg]; ester 1-C; configuration not given here) | 7.5%
